Test results taken from PMC4070292 (Molecular nutrition & food research, 2012).

Tests used:
TNF-α = test: LPS-induced TNF-α release in macrophages; format: cell-based, murine; conditions: 100 ng/mL LPS
NF-κB = NF-κB SEAP reporter gene assay in LPS-stimulated macrophages; format: cell-based, murine; conditions: 16 h; for effect on LPS-stimulated NF-κB activity: 100 ng/mL LPS, 25 μM; for effect on NF-κB activity without LPS: compound alone with diluent control; for decrease of NF-κB activity versus control / effect on LPS-induced NF-κB activity: LPS; for decrease of NF-κB activity versus control: 50 μM; for effect on LPS-induced NF-κB activity: doses as high as 100 μM
[1] = rats, 14 mg luteolin/kg body weight by gavage, after 1 h ref 48; cited from earlier work
[2] = diet containing 0.2% pure apigenin for 7 days ref 47; cited from earlier work

Row | Compound | effect on LPS-induced TNF-α (TNF-α; 8 h, doses as low as 10 μM) | effect on LPS-stimulated NF-κB activity (NF-κB) | effect on NF-κB activity without LPS (NF-κB) | peak plasma concentration [1] | effect on LPS-induced TNF-α (TNF-α; 10–25 μM, data not shown) | effect on LPS-induced TNF-α (TNF-α; 8 h, doses as high as 100 μM) | decrease of NF-κB activity versus control (NF-κB) | effect on LPS-induced NF-κB activity (NF-κB) | apigenin in mouse plasma [2]
1 | O=c1cc(-c2ccc(O)c(O)c2)oc2cc(O)cc(O)c12 [luteolin] | significant reduction | significantly reduced | no effect | 6.9 µM | – | – | – | – | –
2 | O=c1cc(-c2ccc(O)c(O)c2)oc2cc(O[C@@H]3O[C@H](CO)[C@@H](O)[C@H](O)[C@H]3O)cc(O)c12 [luteolin 7-O-glucoside] | – | – | no effect | – | no effect | no effect | not statistically significant | no effect | –
3 | O=c1cc(-c2ccc(O)cc2)oc2cc(O[C@@H]3O[C@H](CO)[C@@H](O)[C@H](O)[C@H]3O)cc(O)c12 [apigenin 7-O-glucoside] | – | – | no effect | – | no effect | no effect | not statistically significant | no effect | –
4 | COc1cc(-c2cc(=O)c3c(O)cc(O)cc3o2)ccc1O [chrysoeriol, Chrysoeriol] | significant reduction | significantly reduced | no effect | – | – | – | – | – | –
5 | O=c1cc(-c2ccc(O)cc2)oc2cc(O)cc(O)c12 [apigenin] | significant reduction | – | – | – | – | – | – | – | 90 nM
